From patent US6706763B1, “O-anisamide derivatives” (Kyorin Pharmaceutical Co., Ltd., priority 1999, dated 2004) come the findings set out here.

The first data set has as its target T1, ligand binding domain of human type PPARα fused with DNA-binding domain of GAL4 (Homo sapiens, UniProt Q07869).
T1 construct: expressed in transfected cells; host or cells: CHO cells
T1 sequence (Q07869 239-466 limits assumed): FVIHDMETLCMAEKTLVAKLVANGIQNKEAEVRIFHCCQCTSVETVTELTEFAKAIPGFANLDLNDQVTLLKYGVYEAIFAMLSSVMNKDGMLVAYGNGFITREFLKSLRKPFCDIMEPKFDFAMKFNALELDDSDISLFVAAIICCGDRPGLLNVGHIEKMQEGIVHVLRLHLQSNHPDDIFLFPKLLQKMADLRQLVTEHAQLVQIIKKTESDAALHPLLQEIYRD
Put plainly: Test of transcriptional activation on peroxisome proliferator-activated receptor α (GAL4 chimera luciferase reporter in CHO cells). It is filed as cell-based. The following applies: CHO cells cotransfected with GAL4-human PPARα LBD receptor plasmid and luciferase reporter; luciferase activity after 24 hours. From the text: Test of transcriptional activation on peroxisome proliferator-activated receptors α and γ
To CHO cells cultured in a Ham's F-12 medium with 10% fetal calf serum, receptor plasmid that expresses fused protein of DNA-binding domain of GAL4 being transcription factor of yeast with ligand binding domain of human type PPARs α and γ (Biochemistry, 1993, 32, 5598), firefly luciferase reporter plasmid (Promega Corp.) that is activated by GAL4 and sea shiitake mushroom luciferase plasmid (Promega Corp.) for internal standard were cotransfected with lipofectamine. Thereafter, testing compound dissolved into dimethyl sulfoxide (DMSO) (final concentration of DMSO 0.1%) and control drug were adjusted with Ham's F-12 medium containing 10% defatted fetal calf serum to culture. After 24 hours, the luciferase activity was measured.
Usually EC50 stands for the concentration that produces a half-maximal response. A low value points to greater potency. In the case of `CCCCC/C=C\C/C=C\C=C\[C@@H](O)C/C=C\CCCC(=O)O` [(8S)-HETE, 8-hydroxyeicosatetraenoic acid, reference compound], a half-maximal response (EC50) required 1300 nM.

Take `COc1ccc(CC(SC)C(N)=O)cc1C(=O)NCc1ccc(C(F)(F)F)cc1` (stereo not shown) [Example 3, 5-[2-Carbamoyl-2-(methylthio)ethyl]-2-methoxy-N-(4-trifluoromethylbenzyl)benzamide]: the EC50 was 2100 nM.

The compound `COc1ccc(CC(SC)C(=O)O)cc1C(=O)NCc1ccc(C(F)(F)F)cc1` (stereo not shown) [Example 7, 3-[4-Methoxy-3-[N-(4-trifluoromethylbenzyl)]carbamoylphenyl]-2-(methylthio)propionic acid] yielded a concentration for a half-maximal effect (EC50) of 1200 nM.

Tested on in another data set: not given
Assay: not given
Details: not given
As usually defined, the melting point is the temperature, or range, at which the solid turns liquid. Take `COc1ccc(C(=O)O)cc1C(=O)NCc1ccc(C(F)(F)F)cc1` [Example 1, 4-Methoxy-3-[N-(4-trifluoromethylbenzyl)carbamoyl]benzoic acid]: the melting point fell in the range of 235.5 to 236.5 °C.

As to `COc1ccc(CC(=O)O)cc1C(=O)NCc1ccc(C(F)(F)F)cc1` [Example 2, 4-Methoxy-3-[N-(4-trifluoromethylbenzyl)]carbamoylphenylacetic acid], the melting point was 167 to 168 °C.

Consider `COc1ccc(CC(SC)C(N)=O)cc1C(=O)NCc1ccc(C(F)(F)F)cc1` (stereo not shown) [Example 3, 5-[2-Carbamoyl-2-(methylthio)ethyl]-2-methoxy-N-(4-trifluoromethylbenzyl)benzamide], for which the melting point lay within 152.5 to 153.5 °C.

`COc1ccc(CC(C(N)=O)[S+](C)[O-])cc1C(=O)NCc1ccc(C(F)(F)F)cc1` (stereo not shown) [Example 4, 5-[2-Carbamoyl-2-(methylsulfinyl)ethyl]-2-methoxy-N-(4-trifluoromethylbenzyl)benzamide] showed a melting point of 170 to 171 °C.

`COc1ccc(CC(C(N)=O)S(C)(=O)=O)cc1C(=O)NCc1ccc(C(F)(F)F)cc1` (stereo not shown) [Example 5, 5-[2-Carbamoyl-2-(methylsulfonyl)ethyl]-2-methoxy-N-(4-trifluoromethylbenzyl)benzamide]: the melting point was 219 to 220 °C.

Consider `COc1ccc(CC(S)C(N)=O)cc1C(=O)NCc1ccc(C(F)(F)F)cc1` (stereo not shown) [Example 6, 5-(2-Carbamoyl-2-mercaptoethyl)-2-methoxy-N-(4-trifluoromethylbenzyl)benzamide], for which the melting point was 159 to 161 °C.

`COc1ccc(CC(C(=O)O)S(C)(=O)=O)cc1C(=O)NCc1ccc(C(F)(F)F)cc1` (stereo not shown) [Example 9, 3-[4-Methoxy-3-[N-(4-trifluoromethylbenzyl)]carbamoylphenyl]-2-(methylsulfonyl)propionic acid]: the melting point is 158 to 159 °C.
